Test results from patent publication US20210379046A1, “Methods of Treating Diseases Using Kinase Modulators” (Memorial Sloan Kettering Cancer Center, priority 2018, published 2021).
“Also recorded” adds a separate entry of the source.

Key:
[1] = system: HLA-A, beta-2-microglobulin, TAP1, TAP2 in Karpas 299 and SUDHL-1 cells; assay: Western blot and qPCR of HLA and antigen processing machinery in ALCL lines; assay type: cell-based, human; settings: for HLA and antigen processing machinery transcript levels (qPCR): Karpas 299 and SUDHL-1, 48 hrs
Procedure: (§1) Cells were seeded in a 60 mm dish or 6 well plates. After the appropriate time point, cells were harvested and lysed and protein was quantified by a Lowry assay (Bio-Rad DC Protein Assay; #5000116). Protein levels were normalized and run on SDS PAGE gels (Bio-Rad). Protein was transferred to a nitrocellulose membrane using semi-dry transfer. Membrane was blocked and incubated with respective antibodies. When needed, secondary antibodies with HRP were incubated for 1 hr.
(§2) Cells were seeded in a 60 mm dish or 6 well plates. After the appropriate time point, cells were harvested, lysed in RIPA buffer (Thermo Instruments) and protein concentration was quantified by a Lowry assay (using the Bio-Rad DC Protein Assay; #5000116 on a Spectramax device from Molecular Devices). Protein loading levels were equalized per lane and separated on SDS gels (Bio-Rad). Protein was transferred to a nitrocellulose membrance using semi-dry transfer (BioRad). Membranes were blocked with Omniblock (American Bio) and incubated with respected antibodies. When needed, secondary antibodies with HRP were incubated for 1 hr.
Data were normalized to baseline expression of each analyzed gene separately.

[2] = system: pERK in H2228 cells; assay: Western blot of pERK in H2228 cells; assay type: cell-based, human; settings: H2228, 100 nM
Procedure: as §1, §2

[3] = system: SUDHL-1 cells; assay: Flow cytometry of cell surface HLA on SUDHL-1 cells; assay type: cell-based, human; settings: SUDHL-1, 72 hrs, increasing concentrations
Procedure: (§3) If adherent cells, they were seeded one day before treatment.

[4] = system: pERK in SUDHL-1 cells; assay: Western blot of pERK in SUDHL-1 cells; assay type: cell-based, human; settings: SUDHL-1, 3 hrs
Procedure: as §1, §2

[5] = system: pERK in Karpas 299 cells; assay: Western blot of pERK in Karpas 299 cells; assay type: cell-based, human; settings: Karpas 299, 3 hrs
Procedure: as §1, §2

[6] = system: Karpas 299 cells; assay: Flow cytometry of cell surface HLA and checkpoint ligands on Karpas 299 cells; assay type: cell-based, human; settings: for cell surface HLA-A,B,C: Karpas 299, 72 hrs, increasing concentrations
Procedure: as §3

[7] = system: Karpas 299 tumors; assay: Karpas 299 subcutaneous tumors in mice, tumor HLA and PD-L1 by flow cytometry; assay type: in vivo; settings: Karpas 299 tumors, daily oral gavage
Procedure: Female NSG (NOD.Cg-Prkdc^scidIl2rg^tm1Wj1/SzJ) and NRG (NOD.Cg-Rag1^tm1MomIl2rg^tm1Wj1/SzJ) mice were purchased from the Jackson Laboratory or MSKCC breeding facility at 5-10 weeks old. For RET and ALK experiments, 2.5-6×10^6 tumor cells were subcutaneously injected into the flank of mice and when tumors were palpable, mice were treated daily with drug or vehicles through oral gavage. At day 7, tumors were harvested and flow cytometry was run to determine effect of inhibitors on HLA and PD-L1 on the tumor cells.
The highly immunodeficient NRG (NOD-Rag1null IL2rgnull) mice were subcutaneously injected with 2.5×10^6 luciferase tagged TPC1 cells in their right flank. […] Afterwards, cells were immediately harvested and stained with antibodies against HLA-A*02:01 and HLA-ABC.
All animal experiments were conducted in accordance with and the approval of the MSKCC IACUC (Institutional Animal Care and Use Committee) protocols. Female NSG (NOD. Cg-Prkdc^scidIl2rg^tm1Wj1/SzJ) and NRG (NOD.Cg-Rag1^tm1MomIl2rg^tm1Wj1/SzJ) mice were purchased from the Jackson Laboratory at 5-10 weeks old. For experiments in vivo with RET and ALK, 2.5-6×10^6 tumor cells in PBS were subcutaneously injected into the flank of mice. When tumors were palpable (2-3 mm), mice were treated daily with drugs or vehicles through oral gavage of drugs in 200 ul of water. At day 4 or 7, tumors were harvested and flow cytometry was conducted to determine the effect of inhibitors on HLA and PD-L1 on the tumor cells. […] TPC1 cells were transduced with luciferase and GFP on an SFG vector and this allowed gating of the tumor cells in flow cytometry.

[8] = system: JAK signaling (pSTAT1) in Karpas299 and TPC1 cells; assay: IFN-γ stimulation and ruxolitinib control in Karpas299 and TPC1 cells; assay type: cell-based, human
Procedure: Cells were harvested and stained with anti-HLA-A02 antibody (BB7-FITC) for flow cytometry. […] (B) Karpas299 and TPC1 cells were treated with DMSO, IFN-γ, or IFN-γ and RUX for 72 hours.
Supernatant media were harvested after treatment and analyzed by the Luminex device (Luminex Corporation, Austin, Tex.) for relevant cytokine secretion. […] On the left side of each panel is data after 24 hours. On the right side of each panel is data after 48 hours. […] The data points shown in this figure are in pairs for each condition. The data point pairs for each time point are, from left to right: DMSO, Rux, Alec, IFNg, and IFNg+Rux.

[9] = system: Karpas 299 and SUDHL-1 cells; assay: Sensitivity of ALCL cells to ALK inhibitors; assay type: cell-based, human
[10] = system: Human T cells; assay: IFN-gamma ELISpot of peptide stimulated T cells; assay type: cell-based; settings: T cells of HLA-A*02:01 positive healthy donors, autologous CD14+ cells presenting peptide
From the text: Peripheral blood mononuclear cells were again derived from healthy donors after receiving informed consent (see above). T cells were isolated by Ficoll density centrifugation and stimulated with pools of peptides that were selected from the population of: (1) new peptides that appeared after RET inhibitor treatment, (2) peptides found on cells before RET inhibitor treatment, and (3) irrelevant peptides not found on the target cells. CD14^+ cells were isolated from PBMCs by negative immunomagnetic cell separation using an isolation kit (Miltenyi Biotec). CD14 cells were used for stimulation in week one and autologous dendritic cells were generated for use thereafter. The purity of the cells was always more than 98%. Monocyte-derived dendritic cells (DCs) were generated from CD14+ cells, by culturing the cells in RPMI 1640 medium supplemented with 1% AP, 500 units/mL recombinant IL-4, and 1,000 units/mL GM-CSF. On days 2 and 4 of the incubation, fresh medium with IL-4 and GM-CSF was either added or replaced half of the culture medium. On day 6, maturation cytokine cocktail was added (IL-4, GM-CSF, 500 IU/mL IL-1, 1,000 IU/mL IL-6, 10 ng/ml TNF-α, and 1 ug/mL PGE-2).
An interferon-gamma ELISpot was performed at the beginning of week three. For this HA-Multiscreen plates (Millipore) were coated with 100 uL of mouse anti-human IFN-gamma antibody (10 ug/mL; clone 1-D1K, Mabtech #3420-2A) in PBS, incubated overnight at 4° C., washed with PBS to remove unbound antibody, and blocked with RPMI 1640/10% autologous plasma (AP) for 2 h at 37° C. Purified CD3^+ T cells (>98% pure) were plated with either autologous CD14^+ (10:1 E:APC ratio) or autologous DCs (30:1 E:APC ratio), Various test peptides were added to the wells at 20 ug/mL. Negative control wells contained. APCs and T cells without peptides or with irrelevant peptides. Positive control wells contained T cells plus APCs plus 20 ug/mL phytohemagglutinin (PHA, Sigma). All conditions were done in triplicates. Microtiter plates were incubated for 20 h at 37° C. and then extensively washed with PBS/0.05% Tween and 100 uL/well biotinylated detection antibody against human IFN-γ (2 ug/mL; clone 7-B6-1; Mabtech) was added. Plates were incubated for an additional 2 h at 37° C. and spot development was done as described. Spot numbers were read and determined by Zellnet Consulting In. T cell killing of target cells was measured at week five as described in the section of ADCC above.

[11] = system: LC-2/ad cells; assay: Flow cytometry of cell surface HLA on LC-2/ad cells; assay type: cell-based, human; settings: 72 hrs
Procedure: as §3

[12] = system: TT cells; assay: Flow cytometry of cell surface HLA on TT cells; assay type: cell-based, human; settings: 72 hrs
Procedure: as §3

[13] = system: TPC1 cells; assay: ADCC chromium-51 release assay with ESK1 and human PBMCs on inhibitor-pretreated TPC1 cells; assay type: cell-based; settings: TPC1 pretreated 72 hrs with 100 nM trametinib, at 3 or 4 E:T ratios
Procedure: Peripheral blood mononuclear cells were derived from healthy donors by Ficoll density centrifugation after receiving informed consent on Memorial Sloan Kettering Institutional Review board-approved protocols. TPC1 cells treated with RET inhibitor drugs and DMSO control were labeled with chromium-51 and co-cultured with PBMCs and ESK (or its isotype control, hIgG1). Different E:T ratios were used and after 5 hrs of incubation at 37° C., the supernatant was harvested and chromium levels were measured by Chromium-51 release assay (Perkin Elmer). Higher chromium levels indicated higher levels of cytotoxicity.
After the addition of ESK and peripheral blood mononuclear cells for 5 hrs, chromium release was measured.
For each experiment reported, fresh peripheral blood mononuclear cells were derived from a healthy donor by Ficoll density centrifugation after receiving informed consent on Memorial Sloan Kettering Institutional Review Board-approved protocols. […] Cells were then labeled with 1 uCi/well chromium-51 for 1 hr at 37° C. […] Different effector:target ratios were used and after 5 hrs of incubation at 37° C., the supernatant was harvested and chromium levels were measured through standard chromium-51 release assay on a Top Count machine (Perkin Elmer).

[14] = system: SKOV3 cells; assay: Surface HLA on SKOV3 cells; assay type: cell-based, human
Procedure: as §3
Experiments in this Example were performed as described in Section 6.1.2.

C[C@@H](Oc1cc(-c2cnn(C3CCNCC3)c2)cnc1N)c1c(Cl)ccc(F)c1Cl [crizotinib]
HLA and antigen processing machinery transcript levels (qPCR) [1]: showed increases in HLA and antigen processing machinery transcript levels
pERK levels [2]: did not change pERK levels
pERK levels ([2]; listed as Crizotinib): does not decrease pERK levels
cell surface HLA-A,B,C [3]: increased surface HLA in a dose-related manner; also recorded: increases in cell surface HLA
pERK levels [4]: inhibited pERK expression
pERK levels [5]: dose-related reduction of pERK at 3 hours; also recorded: dose-related, reduction of pERK at 3 hours
surface HLA-E levels ([6]; Karpas 299): did not change
HLA levels increase compared to control cells treated with DMSO ([6]; Karpas 299, 1 uM, 72 hour incubation): 4 fold
cell surface HLA-A,B,C [6]: increased levels of surface HLA-A,B,C; also recorded: increased levels of surface HLA class I complexes; also recorded: increases in cell surface HLA
tumor PD-L1 levels in vivo [7]: PD-L1 levels decreased with increasing doses; also recorded: PD-L1 levels decreased in vivo
tumor cell surface HLA-A,B,C in vivo [7]: increased slightly in a dose-response manner, though not all mice responded; also recorded: increased modestly in a dose-dependent manner

IFNγ: interferon gamma used as positive control
phosphorylated STAT1 (pSTAT1) ([8]; Karpas299 and TPC1, IFN-γ or IFN-γ and RUX, 72 hours): upregulated in both cell lines
IL4 and IL6 secretion ([8]; Karpas299 and TPC1, IFNγ 100 ng/ml, ruxolitinib 1000 nm): increased both IL4 and IL6

Cc1cc(Nc2ncc(Cl)c(Nc3ccccc3S(=O)(=O)C(C)C)n2)c(OC(C)C)cc1C1CCNCC1 [ceritinib]
HLA and antigen processing machinery transcript levels (qPCR) [1]: Increase in RNA levels of HLA and antigen processing machinery
HLA-A and beta-2-microglobulin protein levels (western blot) ([1]; Karpas 299 and SUDHL-1, 72 hrs): show increase in HLA-A and beta-2-microglobulin
pERK levels [2]: slightly decreased pERK levels
pERK levels ([2]; listed as Ceritinib): minimal changes in pERK levels; also recorded: decreased pERK levels very slightly
cell surface HLA-A,B,C [3]: cell surface HLA increased in both cell lines in a dose-dependent manner
pERK levels [4]: shut down pERK levels
pERK levels [5]: shut down pERK levels
cell surface HLA-A,B,C [6]: cell surface HLA increased in both cell lines in a dose-dependent manner
sensitivity of cells to ceritinib compared with crizotinib [9]: more sensitive to ceritinib than crizotinib, and died at lower concentrations

GRKPPLLKK (irrelevant peptide) [GRKPPLLKK (SEQ ID NO:9), irrelevant peptide, negative control]
T cell mediated IFN gamma response (ELISpot) [10]: No response

ILDKKVEKV (control peptide) [ILDKKVEKV (SEQ ID NO:7), control peptide found before drug treatment on TPC1 cells]
T cell mediated IFN gamma response (ELISpot) [10]: No response

ILQAHLHSL (control peptide) [ILQAHLHSL (SEQ ID NO:8), control peptide found before drug treatment on TPC1 cells]
T cell mediated IFN gamma response (ELISpot) [10]: No response

COc1cc2ncnc(Oc3cccc(NC(=O)Nc4cc(C(C)(C)C(F)(F)F)on4)c3)c2cc1OC [CEP-32496]
surface HLA [11]: minimal effects on HLA upregulation; also recorded: Small changes in cell surface HLA
surface HLA [12]: minimal effects on HLA upregulation; also recorded: Small changes in cell surface HLA

CC(=O)Nc1cccc(-n2c(=O)n(C3CC3)c(=O)c3c(Nc4ccc(I)cc4F)n(C)c(=O)c(C)c32)c1 [trametinib]
improved lysis by ESK1 [13]: about 10%

CS(=O)(=O)CCNCc1ccc(-c2ccc3ncnc(Nc4ccc(OCc5cccc(F)c5)c(Cl)c4)c3c2)o1 [lapatinib]
HLA upregulation [14]: upregulated HLA

TYLEKAIKI (control peptide) [TYLEKAIKI (SEQ ID NO:6), control peptide found before drug treatment on TPC1 cells]
T cell mediated IFN gamma response (ELISpot) [10]: No response
